From patent US11440887B2, “Substituted 1,2,3,4-tetrahydroquinolines as inhibitors of repair enzyme 8-oxoguanine deoxyribonucleic acid glycosylase activity” (The Board of Trustees of the Leland Stanford Junior …, priority 2017, dated 2022) come the findings set out here.

Usually IC50 stands for the concentration at which inhibition is half-maximal. Low values mean inhibition by little substance, high ones a need for much substance. A word on the Km: it is the substrate concentration at which the rate is half of its maximum.

Several values for one entry are separate records, joined by “and”; a condition that tells them apart may be missing. Identical values can stand only once. A value given as a limit tells only on which side of the number the result lay.

Data set [1] has as its target T1, OGG1 (Homo sapiens (Human), UniProt O15527). The data set can be described thus: OGG1 inhibitor assay with fluorogenic OGR1 probe (base excision, initial rates). The class given is biochemical. Here is the method: Methods: Synthesized compounds and hOGG1 (100 nM) were incubated in NEBuffer 4 (1×) with BSA (1×) at 37° C. (15 min) in 100 μL reaction volumes in a black 96-well plate. (See, e.g., Edwards, S. K., et al., ChemBioChem 2015, 16, 1637-1646, the disclosure of which is incorporated herein by reference.) After that, OGR1 (1.2 μM) was added to the reaction mixture. Fluorescence at 460 nm was measured on a Thermo Fluoroskan Ascent FL fluorescence plate reader (λex=355 nm). The slope of initial rate (12 min) was calculated, and % of control was used for inhibition activity. BSA, hOGG1 and NEBuffer 4 were purchased from New England Biolabs and used. UltraPure Distilled Water (Invitrogen) was purchased and used for the assay.

Data set [2] concerns the target T1, OGG1. In words: Km and Kcat study (Michaelis-Menten / Lineweaver-Burk) of OGG1 with inhibitor. The class given is biochemical. The procedure: Methods: For Michaelis-Menten curves: Inhibitor 41 and hOGG1 (100 nM) were incubated in NEBuffer 4 (1×) with BSA (1×) at 37° C. (15 min) in 100 μL reaction volumes in a black 96-well plate. After that, OGR1 (0.8-10 μM) was added to the reaction mixture. Fluorescence at 460 nm was measured on a Thermo Fluoroskan Ascent FL fluorescence plate reader (Aex=355 nm). The initial rate (12 min) was calculated. Lineweaver-Burk plot was leaded from the Michaelis-Menten curves. Km and Vmax were calculated from the equation. Kcat was calculated from Kcat=Vmax/[enzyme].

The target of data set [3] is MTH1 (human MutT homolog 1) (Homo sapiens (Human), UniProt P36639). In words: MTH1 assay (ARGO probe, Kinase-Glo). The class given is biochemical. The settings on record: 20 μM. Here is the method:
(30 min). After that, 5 μL of this reaction solution was mixed with 20 μL of Kinase-Glo. Immediately, luminescence was measured on a Thermo Fluoroskan Ascent FL fluorescence plate reader. (See, e.g., Ji, D., et al., J. Am. Chem. Soc. 2016, 138, 9005-9008, the disclosure of which is incorporated herein by reference.) The slope of initial rate (6 min) was calculated, and % of control was used for inhibition activity. MTH1 was purchased from Abcam, PNK buffer was purchased from New England Biolabs, and Kinase-Glo was purchased from Promega.
For orientation: Kinase-Glo measures the ATP left after a reaction by luminescence.

Another data set concerns the target ABH2 (Homo sapiens (Human), UniProt Q6NS38). The data set can be described thus: ABH2 assay. The class given is biochemical. The settings on record: 20 μM inhibitor. The procedure:
Enzyme (0.5 μM) was pre-incubated for 5 minutes with 20 μM inhibitor or vehicle or at 37° C. in 50 mM HEPES buffer (pH 8.0) containing 75 μM Fe(NH4)2(SO4)2, 1 mM α-ketoglutarate, 2 mM Sodium ascorbate, 50 μg/ml BSA and 0.4 mg/ml Catalase. The probe (1 μM) was added and fluorescent signal plotted over 10 minutes to calculate initial rate. Inhibitor rates were normalized against the vehicle control rate.

In another data set the target is hABH3 (Homo sapiens (Human), UniProt Q96Q83). In words: ABH3 assay (MAQ probe). The conditions noted are these: 20 μM inhibitor. The class given is biochemical. Here is the method:
Enzyme (0.5 μM) was pre-incubated for 5 minutes with 20 μM inhibitor or vehicle or at 37° C. in 50 mM HEPES buffer (pH 8.0) containing 75 μM Fe(NH4)2(SO4)2, (See, e.g., Beharry, A. A., et al., J. Am. Chem. Soc. 2016, 138, 3647-3650, the disclosure of which is incorporated herein by reference.) 1 mM α-ketoglutarate, 2 mM Sodium ascorbate, 50 μg/ml BSA and 0.4 mg/ml Catalase. The MAQ probe (1 μM) was added and fluorescent signal plotted over 10 minutes to calculate initial rate. Inhibitor rates were normalized against the vehicle control rate.3

A further data set deals with HEK293T cells. In words: MTT assay, HEK293T. The conditions noted are these: 24 h. The class given is cell-based, human. Here is the method:
Methods: HEK293T cells (concentration of 1.6×10^4 cells per well) and HeLa cells (concentration of 1.2×10^4 cells per well) were seeded to 96-well plate in supplemented DMEM culture medium (10% FBS, 100 U Pen./Strep.) and incubated for 30 h (HEK293T cells) and 16 h (HeLa cells) at +37° C. and 5% CO2. […] After the incubation period, 10 μL of the MTT labeling reagent (final concentration 0.5 mg/ml) was added to each well, and incubated at +37° C. and 5%. 100 μl of the solubilization solution was added into each well, and incubated for 20 h at +37° C. and 5%. Absorbance of the samples was measured by using a microplate reader Tecan Infinite M1000 at 550, and 650 nm. […] In the rest of the samples (10 μM, 1 μM, 100 nM, and 10 nM) concentration of DMSO was at the level of 1%. The controls were prepared: Ctrl—cells cultured only in the supplemented DMEM; Ctrl 5% DMSO—cells cultured in 5% DMSO in the supplemented DMEM; Ctrl 1% DMSO—cells cultured in 1% DMSO in the supplemented DMEM.

The nature of data set [4]: Half-life / pharmacokinetics after intraperitoneal dosing. The class given is in vivo. The conditions noted are these: mice, IP, 3 mg/kg. Here is the method:
Methods: Each OGG1 inhibitor was dosed by intraperitoneal (IP) and oral (PO) routes of administration at a target dose of 3 mg/kg. Blood samples were collected up to 24 hours post-dose, and blood concentrations of the test articles were determined by LC-MS/MS. Pharmacokinetic parameters were determined using Phoenix WinNonlin (v8.0) software

Data set [5] addresses T1, OGG1. In words: Surface plasmon resonance (SPR) binding to OGG1. Here is the method:
Additional embodiments utilize surface plasmon resonance (SPR) to investigate the binding of various compounds to OGG1. […] Specifically, FIG. 8A illustrates a sensorgram plot of binding response versus time, while FIG. 8B illustrates binding response versus concentration of an inhibitor. Further, FIG. 8C provides Ka, Kd and KD values that are calculated for compounds of various embodiments. These figures indicate that certain embodiments bind strongly to OGG1.

In data set [6] the test system is DUT (deoxyuridine 5′-triphosphate nucleotidohydrolase). The conditions noted are these: 20 μM.

T1 sequence (O15527 whole entry): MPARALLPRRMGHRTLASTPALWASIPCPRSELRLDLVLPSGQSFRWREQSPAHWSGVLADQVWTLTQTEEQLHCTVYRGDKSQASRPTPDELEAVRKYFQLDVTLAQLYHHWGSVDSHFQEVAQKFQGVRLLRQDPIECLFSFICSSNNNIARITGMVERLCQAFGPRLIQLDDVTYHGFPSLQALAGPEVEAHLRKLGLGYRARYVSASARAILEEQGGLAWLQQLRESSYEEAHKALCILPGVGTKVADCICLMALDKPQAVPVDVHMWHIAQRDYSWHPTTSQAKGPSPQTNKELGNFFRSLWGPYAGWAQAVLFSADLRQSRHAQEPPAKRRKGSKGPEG
hABH3, sequence (Q96Q83 whole entry): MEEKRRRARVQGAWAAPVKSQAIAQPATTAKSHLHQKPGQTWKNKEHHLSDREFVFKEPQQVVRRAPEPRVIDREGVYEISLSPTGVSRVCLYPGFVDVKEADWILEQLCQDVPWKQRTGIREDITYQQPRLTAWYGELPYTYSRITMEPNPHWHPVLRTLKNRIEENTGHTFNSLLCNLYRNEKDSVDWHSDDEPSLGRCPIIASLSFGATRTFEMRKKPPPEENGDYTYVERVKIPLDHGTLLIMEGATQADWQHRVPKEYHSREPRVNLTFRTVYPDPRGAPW
ABH2, sequence (Q6NS38 whole entry, species assumed): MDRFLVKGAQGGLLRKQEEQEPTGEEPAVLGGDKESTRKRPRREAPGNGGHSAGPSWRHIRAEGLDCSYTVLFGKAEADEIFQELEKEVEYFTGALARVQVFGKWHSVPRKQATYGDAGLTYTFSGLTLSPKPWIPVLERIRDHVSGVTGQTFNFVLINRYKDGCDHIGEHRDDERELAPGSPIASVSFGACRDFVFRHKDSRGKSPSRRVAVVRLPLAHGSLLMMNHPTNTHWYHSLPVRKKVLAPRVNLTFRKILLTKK

In the case of `NC(=O)c1cccc(-c2ccc(S(=O)(=O)Nc3ccc4c(c3)N(C(=O)C3CC3)CCC4)cc2)c1` [Compound 41], on OGG1 [1] (200 nM compound, ratio of initial rate slope (first 12 min) to no-compound control), the “Enzyme activity, % of control at 200 nM” value was 39 ± 2.5 % of control. The “Enzyme activity, % of control at 2 μM” value at OGG1 [1] (2 μM compound, ratio of initial rate slope (first 12 min) to no-compound control) is 4.8 % of control. This molecule also came in with an IC50 against OGG1 [1] (initial rates method) of 0.059 µM. Also, at OGG1 [2] (OGG1 with 200 nM 41), the Kcat was determined as 0.057 s⁻¹, the Kcat/Km is 0.0070 s^−1μM^−1 and the Km was 8.2 µM. In addition, on OGG1 [2] (OGG1 with 2 μM 41), the Kcat amounted to 0.040 s⁻¹, the Kcat/Km stood at 0.022 s^−1μM^−1 and the Km worked out at 1.8 µM. In addition, the “MTH1 enzyme activity in the presence of the inhibitor” value in data set [3] is more than 80%. Moreover, the “ABH2 enzyme activity in the presence of the inhibitor” value on ABH2 was more than 90%. In addition, the “ABH3 enzyme activity in the presence of the inhibitor” value at hABH3 was approximately 100%. Moreover, the “cytotoxicity by MTT assay” value in the data set on HEK293T cells (10 nM to 10 μM) is reported as “little or no cytotoxicity”. The “toxicity by MTT assay” value in the data set with HEK293T cells (100 μM) is 30-50%. Further, in data set [4], the “average exposure, dose-normalized AUClast” value is recorded as 543±281 hr*kg*ng/m L/m g; the “maximum blood concentrations (average)” value is 1210 ± 206 ng/mL; the “time of maximum blood concentrations post dosing” value is 15 min. Moreover, the “Half-life Mean” value in data set [4] (mean of three replicates, listed as SU0268) was “approximately 4 hr and 4.02±0.709 hr and 4.02 hr”. In [4] (replicate 1), the “Half-life R1” value amounted to 4.84 h. Further, the “Half-life R3” value in data set [4] (replicate 3) is 3.60 h. Also, the “binding to OGG1 by SPR” value at OGG1 [5] is “binds strongly”. Besides, the “activity of compound against DUT (selectivity)” value in [6] is on record as “low”.
